Series [1] relates to Mycobacterium tuberculosis (Mtb), non-replicating. Description: Minimum Anaerobicidal Concentration. The format is cell-based. Particulars: non-replicating (anaerobic) Mtb; average ± SD of multiple measurements.
Series [2] concerns Mycobacterium tuberculosis (Mtb), replicating. Description: Minimum Inhibitory Concentration. In kind it is cell-based. The settings on record: for Mtb MIC99 μM (±SD): replicating (aerobic) Mtb, average ± SD of multiple measurements; for MIC99: Mycobacterium tuberculosis, read-out: Mtb MIC99 μM (±SD).
Series [3] is described as follows: Stability in mouse liver microsomes. In kind it is in vitro ADME. Particulars: calculated from intrinsic clearance in mouse liver microsomes, method of ref 21.
Series [4] is described as follows: In vivo pharmacokinetic study, intravenous 5mg/kg. Particulars: mice, intravenous injection at 5mg/kg.

In brackets after ≈: the same amount, converted by molar mass.

Regarding “2−((S)−2−Nitro−6,7−dihydro−5H−imidazo[2,1−b][1,3]oxazin−6−ylamino)−2−(4−trifluoromethoxyphenyl)−ethanol [Compound 17i]”, the “Mtb MAC μM (±SD)” value in series [1] was 23 ± 6 µM. In addition, the “Mtb MIC99 μM (±SD)” value in series [2] amounted to 0.13 ± 0.04 µM. Take `CCC(=O)N(Cc1ccc(OC(F)(F)F)cc1)[C@@H]1COc2nc([N+](=O)[O-])cn2C1` [Compound 4b, (S)-N-(2-Nitro-6,7-dihydro-5H-imidazo[2,1-b][1,3]oxazin-6-yl)-N-(4-trifluoromethoxybenzyl)-propionamide]: the “Mtb MIC99 μM (±SD)” value in series [2] was “Insoluble”. For `CN(Cc1ccc(OC(F)(F)F)cc1)[C@@H]1COc2nc([N+](=O)[O-])cn2C1` [Compound 5a, (S)-N-Methyl-2-nitro-N-4-trifluoromethoxybenzyl-6,7-dihydro-5H-imidazo[2,1-b][1,3]oxazin-6-amine], the “Predicted hepatic extraction ratio” value in series [3] is recorded as 85%. On the same count and under the same terms, with `CCCN(Cc1ccc(OC(F)(F)F)cc1)[C@@H]1COc2nc([N+](=O)[O-])cn2C1` [Compound 5b, (S)-2-Nitro-N-propyl-N-(4-trifluoromethoxybenzyl)-6,7-dihydro-5H-imidazo[2,1-b][1,3]oxazin-6-amine] the figure was 95%; with `CC(C)N(Cc1ccc(OC(F)(F)F)cc1)[C@@H]1COc2nc([N+](=O)[O-])cn2C1` [Compound 5c, (S)-N-Isopropyl-2-nitro-N-(4-trifluoromethoxybenzyl)-6,7-dihydro-5H-imidazo[2,1-b][1,3]oxazin-6-amine], 95%. Still for that read-out and setting: with `O=[N+]([O-])c1cn2c(n1)OC[C@@H](NCc1ccc(OC(F)(F)F)cc1Oc1ccccc1)C2` [Compound 32d, (S)-2-Nitro-N-(2-phenoxy-4-trifluoromethoxybenzyl)-6,7-dihydro-5H-imidazo[2,1-b][1,3]oxazin-6-amine] the figure was 90%; with `O=[N+]([O-])c1cn2c(n1)OC[C@@H](NCc1ccc(OC(F)(F)F)cc1OCC1CC1)C2` [Compound 32e, (S)-N-(2-Cyclopropylmethoxy-4-trifluoromethoxybenzyl)-2-nitro-6,7-dihydro-5H-imidazo[2,1-b][1,3]oxazin-6-amine], 97%.

Take `O=[N+]([O-])c1cn2c(n1)OC[C@@H](NCc1ccc(OC(F)(F)F)cc1OC1CC1)C2` [Compound 32f, (S)-N-(2-Cyclopropoxy-4-trifluoromethoxybenzyl)-2-nitro-6,7-dihydro-5H-imidazo[2,1-b][1,3]oxazin-6-amine]: the “Predicted hepatic extraction ratio” value in series [3] was 87%. In the case of `O=[N+]([O-])c1cn2c(n1)OC[C@@H](NCc1ccc(OC(F)(F)F)cc1O)C2` [Compound 32g, (S)-2-((2-Nitro-6,7-dihydro-5H-imidazo[2,1-b][1,3]oxazin-6-ylamino)methyl)-5-trifluoromethoxyphenol], the “Predicted hepatic extraction ratio” value in series [3] is on record as 81%. Turning to `O=[N+]([O-])c1cn2c(n1)OC[C@@H](NCc1ccc(OC(F)(F)F)cc1F)C2` [Compound 41a, (S)-N-(2-Fluoro-4-(trifluoromethoxy)benzyl)-2-nitro-6,7-dihydro-5H-imidazo[2,1-b][1,3]oxazin-6-amine], in series [2], the MIC99 (commonly an inhibitory concentration at the 99% level, which refers to growth in some studies and to a panel of isolates in others) was determined as 0.13 ± 0.06 µM (≈ 0.0489 µg/mL). The “Predicted hepatic extraction ratio” value in series [3] is on record as 81%. For `O=[N+]([O-])c1cn2c(n1)OC[C@@H](NCc1ccc(OC(F)(F)F)cc1Cl)C2` [Compound 41b, (S)-N-(2-Chloro-4-trifluoromethoxybenzyl)-2-nitro-6,7-dihydro-5H-imidazo[2,1-b][1,3]oxazin-6-amine] the same measures were 0.12 ± 0.05 µM (≈ 0.0471 µg/mL) and 75%. Turning to `O=[N+]([O-])c1cn2c(n1)OC[C@@H](NCc1ccc(OC(F)(F)F)c(F)c1)C2` [Compound 56a, (S)-N-(3-Fluoro-4-trifluoromethoxybenzyl)-2-nitro-6,7-dihydro-5H-imidazo[2,1-b][1,3]oxazin-6-amine], in series [4], the “in vivo clearance” value is listed as “low to moderate clearance” and the “systemic exposure” value is “good systemic exposure”. The “Predicted hepatic extraction ratio” value in series [3] was 72%.

As for `O=[N+]([O-])c1cn2c(n1)OC[C@@H](NCc1ccc(OC(F)(F)F)c(Cl)c1)C2` [Compound 56b, (S)-N-(3-Chloro-4-trifluoromethoxybenzyl)-2-nitro-6,7-dihydro-5H-imidazo[2,1-b][1,3]oxazin-6-amine], in series [4], the “in vivo clearance” value is “low to moderate clearance” and the “systemic exposure” value is “good systemic exposure”. As for `O=[N+]([O-])c1cn2c(n1)OC[C@@H](NCc1ccc(OC(F)(F)F)c(Oc3ccccc3)c1)C2` [Compound 56e, (S)-2-Nitro-N-(3-phenoxy-4-(trifluoromethoxy)benzyl)-6,7-dihydro-5H-imidazo[2,1-b][1,3]oxazin-6-amine], in series [3], the “Predicted hepatic extraction ratio” value is given as 87%. Turning to `O=[N+]([O-])c1cn2c(n1)OC[C@@H](NCc1ccc(OC(F)(F)F)c(O)c1)C2` [Compound 56i, (S)-5-((2-Nitro-6,7-dihydro-5H-imidazo[2,1-b][1,3]oxazin-6-ylamino)methyl)-2-(trifluoromethoxy)-phenol], in series [4], the “in vivo clearance” value is “cleared more rapidly” and the “systemic exposure” value is recorded as “low systemic exposure”.
